One compound from US6648952B1, “Anthrapyridone compound, aqueous magenta ink compositions and ink-jet recording method” (Nippon Kayaku Kabushiki Kaisha, priority 1999, dated 2003) can be followed below.

Where a name gives a salt, the structure may show the parent alone.

A short description of this data set: Solubility of the dye in pure water. Format: physicochemical. The note with it: pure water (ion exchanged water), 25° C.

The term solubility denotes the dissolved amount per volume that the medium holds. A higher solubility goes with a readily soluble substance. In the case of `CC(C)(C)CC(C)(C)c1ccc(Oc2cc(Nc3ccc(S(=O)(=O)O)cc3)c3c4c(c(C(=O)c5ccccc5)c(=O)[nH]c24)-c2ccccc2C3=O)c(S(=O)(=O)O)c1` [Example M1, sodium salt of anthrapyridone disulfonic acid of Formula (1)], the solubility was 100 mg/mL.
